Reference: patent publication US20100316628A1, “AGENTS AND METHODS FOR TREATING RESPIRATORY DISORDERS” (THE GENERAL HOSPITAL CORPORATION, priority 2008, published 2010)
Entries after “also recorded” stand apart in the source; their conditions may differ.

Assays:
clear cells [1] = assay: In vivo luminal microperfusion of cauda epididymidis; quantification of V-ATPase apical membrane accumulation / microvilli elongation in clear cells; set-up: species or system rat; conditions: for effect on ANGII-induced V-ATPase apical accumulation and microvilli elongation: 10 min pre-treatment, then ANGII 20 min with agent present, PD123319 1 μM, losartan 1 μM, ODQ 3 μM, L-NAME 100 μM; for extension of V-ATPase-labeled microvilli versus control: mean±SEM
Method: (§1) Rats were anesthetized and the cauda epididymidis was luminally perfused in vivo, harvested and fixed in PLP, as described previously (Beaulieu et al., 2005; Pastor-Soler et al., 2003; Wong and Yeung, 1978).
Immunofluorescence labeling was performed on cryostat sections, as described previously (Beaulieu et al., 2005; Pastor-Soler et al., 2003). Primary antibodies, the AGTR2 peptide and secondary antibodies used are listed in supplementary material. Slides were mounted in Vectashield (Vector Labs, Burlingame, Calif.) with or without DAPI. For confocal microscopy, nuclei were stained using TOPRO-3 iodide (Invitrogen, Carlsbad, Calif.). Immunostained sections were examined using a Nikon E800 microscope (Nikon Instruments, Melville, N.Y.). Digital images were acquired with IPLab Spectrum software (Scanalytics, Fairfax, Va.) and imported into Adobe Photoshop. Sections were also examined using a […] confocal microscope (Zeiss Laboratories). Z-series (0.1-μm interval) were imported into Volocity software (Improvision Inc., version 4.1) for 3D reconstruction and final animations were exported as Quicktime movies.
The level of accumulation of V-ATPase in clear cell microvilli was quantified using IPLab software as described previously (Beaulieu et al., 2005; Pastor-Soler et al., 2003). 10 μm sections of microperfused cauda epididymidis were immunostained under identical conditions, and confocal images were acquired using the same parameters. The segmentation procedure of IPLab was used to measure the area of V-ATPase-positive microvilli, which was normalized against the length of apical pole of each cell (Beaulieu et al., 2005; Pastor-Soler et al., 2003). At least three epididymides from different animals were perfused for each condition, and a minimum of 10 cells/tissue were examined for a total of at least 30 cells/condition.

proximal VD = assay: Detection of proton secretion in cut-open proximal VD with a self-referencing proton-selective electrode; set-up: species or system rat; conditions: for proton secretion (effect of the added agent): ANGII 1 μM added to the bath, then concanamycin A 1 μM
Method: The proximal VD was cut open to expose the apical surface of the epithelium and anchored onto a custom-made chamber. Proton secretion was measured using a self-referencing proton-selective electrode, as described previously (Beaulieu et al., 2005; Breton et al., 1996; Smith et al., 2007).

clear cells [2] = assay: Immunogold electron microscopy and quantification of V-ATPase gold labeling in clear cells of perfused epididymis; assay type: in vivo, rat; conditions: luminal ANGII 1 μM vs control
Method: as §1
Pieces of PLP-fixed epididymis were embedded at −45° C. using HM20 resin (Electron Microscopy Sciences, Hatfield, Pa.) in a Leica EM AFS, and ultrathin sections were cut, as described previously (Da Silva et al., 2007; Pastor-Soler et al., 2003). Sections were immunostained for the V-ATPase A subunit, followed by goat anti-rabbit IgG coupled to 15 nm gold (Ted Pella, Reading, Calif.). Grids were examined in a JEOL 1011 electron microscope. Images were acquired using an AMT digital imaging system.
The number of V-ATPase associated gold particles on the apical membrane and microvilli was counted for each clear cell (Da Silva et al., 2007; Pastor-Soler et al., 2003). To determine the density of V-ATPase molecules along the apical membrane, the number of gold particles was divided by the length of apical membrane, including microvilli, of each cell. This value is referred to as “gold/μm apical membrane”. To determine the relative density of the V-ATPase at the cell surface, the number of gold particles was normalized for the width of the cell, measured at the base of the microvilli (gold/μm cell width).

Cc1cc(Cn2cnc3c2C[C@@H](C(=O)O)N(C(=O)C(c2ccccc2)c2ccccc2)C3)ccc1N(C)C [PD123319]
effect on ANGII-induced V-ATPase apical accumulation and microvilli elongation (clear cells [1]): prevented the stimulatory effect of ANGII; also recorded: inhibited the effect of ANGII at both 0.1 and 1 μM concentrations

O=c1onc2cnc3ccccc3n12 [ODQ]
effect on ANGII-induced V-ATPase apical accumulation and microvilli elongation (clear cells [1]): completely abolished

C/C=C/[C@H]1O[C@@](O)([C@@H](C)[C@H](O)[C@H](C)[C@H]2OC(=O)/C(OC)=C/C(C)=C/[C@@H](C)[C@@H](O)[C@@H](CC)[C@@H](O)[C@H](C)C/C(C)=C/C=C/[C@@H]2OC)C[C@@H](O[C@H]2C[C@@H](O)[C@H](OC(N)=O)[C@@H](C)O2)[C@@H]1C [concanamycin A]
proton secretion (effect of the added agent) (proximal VD): markedly inhibited; also recorded: marked inhibition
effect of pre-incubation on the proton secretion response to ANGII (proximal VD; pre-incubation of the tissue for 10 min, data not shown): prevented the response to ANGII

angiotensin II (DRVYIHPF; Angiotensin-2; UniProt P01019 25-32, looked up) [ANGII, peptide hormone; agonist of AGTR1 and AGTR2 receptors]
extension of V-ATPase-labeled microvilli versus control (clear cells [1]; ANGII 0.1 μM in luminal perfusate, 20 min): 141±4%
extension of V-ATPase-labeled microvilli versus control (clear cells [1]; ANGII 1 μM in luminal perfusate, 20 min): 153±7%
V-ATPase-labeled microvilli seen by immunogold labeling (clear cells [2]): longer and more numerous V-ATPase-labeled microvilli are detected
density of V-ATPase molecules in microvilli (Gold/μm apical membrane) (clear cells [2]; P<0.0005): significant increase
total number of V-ATPase molecules located at the cell surface (Gold/μm cell width) (clear cells [2]; P<0.0005): further amplified compared to control
proton secretion (effect of the added agent) (proximal VD): sustained increase in proton secretion
increase of concanamycin-sensitive proton secretion compared to control (proximal VD; ANGII 1 μM, measured 30 min after addition, n=7, P<0.05): 68%

CCCCc1nc(Cl)c(CO)n1Cc1ccc(-c2ccccc2-c2nn[nH]n2)cc1 [Losartan]
effect on ANGII-induced V-ATPase apical accumulation and microvilli elongation (clear cells [1]): no inhibitory effect

Nc1nc2c(nc(Sc3ccc(Cl)cc3)n2[C@@H]2O[C@@H]3COP(=O)(O)O[C@H]3[C@H]2O)c(=O)[nH]1 [p-cpt-cGMP]
elongation of V-ATPase-rich microvilli compared to control (clear cells [1]; 1 mM in luminal perfusate, 20 min): significant elongation; also recorded: marked elongation
